In publication PMC11434613, “The Remarkable and Selective In Vitro Cytotoxicity of Synthesized Bola-Amphiphilic Nanovesicles on Etoposide-Sensitive and -Resistant Neuroblastoma Cells” (Nanomaterials, 2024):
Like-named read-outs stand apart in the source and are kept apart here.

What was measured:
red blood cells (RBCs) = assay: In vitro hemolytic toxicity on red blood cells; type: cell-based, human; conditions: for Hemolysis (hemolytic ratio): 60 min; for IC50: 60 min at 37 °C, 0.1–50 µM, blood of four healthy donors, read-out: IC50 RBCs (concentration needed to cause 50% hemolysis)
Description: (§1) The hemolytic ratio was evaluated, as recently reported with slight changes, in EDTA-blood samples from four healthy donors from the San Martino Hospital Transfusion Centre. Specifically, red blood cells (RBCs) were isolated by diluting 0.2 mL of blood with 0.4 mL of phosphate-buffered saline (PBS) and centrifuging it for 5 min at 10,000× g. The pellet, consisting of RBCs, was washed 5 times with 1.0 mL PBS and finally resuspended with 2.0 mL PBS. The assay was carried out on 0.1 mL of resuspended RBCs added to 0.1 mL of H2O (positive control), 0.1 mL of PBS (negative control), or 0.1 mL of the different concentrations (0.1–50 µM) of the compound to be tested (BPPB). The samples were incubated for 60 min at 37 °C, and at the end, they were centrifuged for 5 min at 10,000× g. Finally, 0.1 mL of supernatant was transferred to a transparent 96-well plate and measured by a spectrophotometer (Dynex Technologies; Chantilly, VA, U.S.A.) at 595 nm. The hemolytic ratio was calculated using the following formula:Hemolytic ratio (%) = (OD TEST − OD NEGATIVE CONTROL)/(OD POSITIVE CONTROL − OD NEGATIVE CONTROL) × 100
(§2) The hemolytic ratio percentage (%) caused by BPPB was assessed as recently reported with slight changes. In particular, EDTA-blood samples from four healthy donors were exposed to increasing concentrations of BPPB (0.1–50 µM).

[1] = In vitro hemolytic toxicity on red blood cells; type: cell-based, human; conditions: human
Description: as §1, §2

SMILES: c1ccc([P+](CCCCCCCCCCCC[P+](c2ccccc2)(c2ccccc2)c2ccccc2)(c2ccccc2)c2ccccc2)cc1 [BPPB, 1,1-(1,12-dodecanediyl)bis [1,1, 1]-triphenylphosphonium di-bromide]
- Hemolysis (hemolytic ratio) (red blood cells (RBCs); 10 µM): 25.1%
- Hemolysis (hemolytic ratio) (red blood cells (RBCs); 20 µM): 50.8%
- IC50 (red blood cells (RBCs)): 14.9 µM
- IC50 (red blood cells (RBCs); Homo sapiens, Erythrocyte, 1 h): 14.9 µM
- Selectivity index (SI) = IC50 RBCs / IC50 HTLA-230 (red blood cells (RBCs); NB cells 24 h exposure): > 74
- Selectivity index (SI) = IC50 RBCs / IC50 HTLA-ER (red blood cells (RBCs); NB cells 24 h exposure): 13.56
- selectivity ratio at 60 min ([1]; NB cells 24 h exposure, read-out: Selectivity index (SI) = IC50 RBCs / IC50 HTLA-ER): > 10
- viability at 60 min ([1]; isolated red blood cells, concentration at which both NB cell populations were fully exterminated, read-out: RBC viability): 98.4%
